# Assay results published in patent publication US20100092526A1, “NANOEMULSION THERAPEUTIC COMPOSITIONS AND METHODS OF USING THE SAME” (NanoBio Corporation, priority 2008, published 2010).
# Read-outs that look alike come from different tables or passages of the source.
# How the values were obtained:
# Acinetobacter baumannii [1] = assay: MIC/MBC of nanoemulsions against gram-negative isolates (CLSI, alamar blue); assay type: cell-based; settings: Acinetobacter baumannii (n = 5); for MIC50: nanoemulsions in the presence of 5 mM EDTA
# Klebsiella pneumoniae = assay: as above; assay type: cell-based; settings: Klebsiella pneumoniae (n = 5); for MIC50 / MIC Range: nanoemulsions in the presence of 5 mM EDTA
# Proteus mirabilis = assay: as above; assay type: cell-based; settings: Proteus mirabilis (n = 5); for MIC50 / MIC Range: nanoemulsions in the presence of 5 mM EDTA
# Burkholderia cenocepacia = assay: MIC/MBC against CF isolates (CLSI, alamar blue); settings: Burkholderia cenocepacia
# Burkholderia cepacia = assay: MIC/MBC of nanoemulsions against gram-negative isolates (CLSI, alamar blue); assay type: cell-based; settings: Burkholderia cepacia (n = 5), nanoemulsions in the presence of 5 mM EDTA; for MIC Range: in µg/mL
# [2] = test system: Stenotrophomonas maltophilia; assay: as above; assay type: cell-based; settings: Stenotrophomonas maltophilia (n = 5); nanoemulsions in the presence of 5 mM EDTA
# Pseudomonas aeruginosa [3] = assay: MIC/MBC against CF isolates (CLSI, alamar blue); settings: for MBC / MIC: Pseudomonas aeruginosa
# Escherichia coli = assay: MIC/MBC of nanoemulsions against gram-negative isolates (CLSI, alamar blue); assay type: cell-based; settings: Escherichia coli (n = 5)
# [4] = test system: P. aeruginosa, B. cenocepacia, A. baumannii and S. maltophilia; assay: MIC/MBC against all strains of Example 8; settings: read-out: MBC90, against all strains
# Pseudomonas aeruginosa [5] = assay: MIC/MBC of nanoemulsions against gram-negative isolates (CLSI, alamar blue); assay type: cell-based; settings: Pseudomonas aeruginosa (n = 5); for MIC50: nanoemulsions in the presence of 5 mM EDTA
# Acinetobacter baumannii [6] = assay: MIC/MBC against clinical isolates (CLSI, alamar blue); settings: Acinetobacter baumannii
# Haemophilus influenzae = assay: Susceptibility (MIC/MBC) of H. influenzae clinical isolates; assay type: cell-based
# [7] = nanoemulsions in the presence of 5 mM EDTA
compound,measurement,setting,value
C[C@@H](O)[C@H]1C(=O)N2C(C(=O)O)=C(SCCN=CN)C[C@H]12 [Imipenem],% resistant,Acinetobacter baumannii [1],20.0%
same,% susceptible,Acinetobacter baumannii [1],80.0%
same,MIC50,Acinetobacter baumannii [1],≤ 0.12 µg/mL
same,% resistant,Klebsiella pneumoniae,0.0%
same,% susceptible,Klebsiella pneumoniae,100.0%
same,MIC50,Klebsiella pneumoniae,0.25 µg/mL
same,MIC Range,Klebsiella pneumoniae,<=0.12-0.25 ^
same,% resistant,Proteus mirabilis,0.0%
same,% susceptible,Proteus mirabilis,100.0%
same,MIC50,Proteus mirabilis,1 µg/mL
same,MIC Range,Proteus mirabilis,<=0.12-2 ^
same,MBC,Burkholderia cenocepacia; CF Burkholderia isolate NB28b,0.5 µg/mL
same,MIC,Burkholderia cenocepacia; CF Burkholderia isolate NB28b,0.5 µg/mL
same,MIC,Burkholderia cenocepacia; CF Burkholderia isolate NB29,8 µg/mL
same,MIC50,Burkholderia cepacia,8 µg/mL
same,MIC Range,Burkholderia cepacia,4-8
same,MIC50,[2],> 8 µg/mL
same,MBC 90,Pseudomonas aeruginosa [3]; 20 CF Pseudomonas isolates,>32 µg/mL
same,MBC,Pseudomonas aeruginosa [3]; CF Pseudomonas isolate NB1,8 µg/mL
same,MIC,Pseudomonas aeruginosa [3]; CF Pseudomonas isolate NB1,1 µg/mL
same,MBC,Pseudomonas aeruginosa [3]; CF Pseudomonas isolate NB2,2 µg/mL
same,MIC,Pseudomonas aeruginosa [3]; CF Pseudomonas isolate NB2,2 µg/mL
same,MIC,Pseudomonas aeruginosa [3]; CF Pseudomonas isolate NB3,2 µg/mL
same,MBC,Pseudomonas aeruginosa [3]; CF Pseudomonas isolate NB4,8 µg/mL
same,MIC,Pseudomonas aeruginosa [3]; CF Pseudomonas isolate NB5,2 µg/mL
same,MBC,Pseudomonas aeruginosa [3]; CF Pseudomonas isolate NB6,2 µg/mL
same,MIC,Pseudomonas aeruginosa [3]; CF Pseudomonas isolate NB6,1 µg/mL
same,MBC,Pseudomonas aeruginosa [3]; CF Pseudomonas isolate NB10,8 µg/mL
same,MBC,Pseudomonas aeruginosa [3]; CF Pseudomonas isolate NB11,8 µg/mL
same,MIC,Pseudomonas aeruginosa [3]; CF Pseudomonas isolate NB11,2 µg/mL
same,MIC,Pseudomonas aeruginosa [3]; CF Pseudomonas isolate NB13,8 µg/mL
same,MIC,Pseudomonas aeruginosa [3]; CF Pseudomonas isolate NB15,8 µg/mL
same,MIC,Pseudomonas aeruginosa [3]; CF Pseudomonas isolate NB16,8 µg/mL
same,MIC,Pseudomonas aeruginosa [3]; CF Pseudomonas isolate NB20,2 µg/mL
same,% resistant,Escherichia coli,0.0%
same,% susceptible,Escherichia coli,100.0%
same,MIC50,Escherichia coli; [7],0.25 µg/mL
same,MIC Range,Escherichia coli; [7],<=0.12-0.5 ^
same,MBC,[4],> 32 µg/mL
same,% resistant,Pseudomonas aeruginosa [5],20.0%
same,% susceptible,Pseudomonas aeruginosa [5],80.0%
same,MIC50,Pseudomonas aeruginosa [5],1 µg/mL
same,MIC,Acinetobacter baumannii [6],0.125 µg/mL
same,MBC,Acinetobacter baumannii [6]; Acinetobacter isolate NB31,1 µg/mL
same,MIC,Acinetobacter baumannii [6]; Acinetobacter isolate NB31,1 µg/mL
same,MBC,Acinetobacter baumannii [6]; Acinetobacter isolate NB35,8 µg/mL
same,MIC,Acinetobacter baumannii [6]; Acinetobacter isolate NB35,8 µg/mL
same,MBC,Acinetobacter baumannii [6]; Acinetobacter isolate NB36,0.125 µg/mL
same,MBC,Acinetobacter baumannii [6]; Acinetobacter isolate NB37,8 µg/mL
same,MBC,Acinetobacter baumannii [6]; Acinetobacter isolate NB39,2 µg/mL
same,MIC,Acinetobacter baumannii [6]; Acinetobacter isolate NB39,2 µg/mL
same,MIC,Acinetobacter baumannii [6]; Acinetobacter isolate NB40,2 µg/mL
same,MBC,"Acinetobacter baumannii [6]; read-out: MBC 50, 10 Acinetobacter isolates",8 µg/mL
CN(C)[C@@H]1C(O)=C(C(N)=O)C(=O)[C@@]2(O)C(O)=C3C(=O)c4c(O)cccc4[C@@](C)(O)[C@H]3C[C@@H]12 [Tetracycline],% resistant,Acinetobacter baumannii [1],20.0%
same,% susceptible,Acinetobacter baumannii [1],80.0%
same,MIC50,Acinetobacter baumannii [1],≤ 2 µg/mL
same,% resistant,Klebsiella pneumoniae,0.0%
same,% susceptible,Klebsiella pneumoniae,100.0%
same,MIC50,Klebsiella pneumoniae,≤ 2 µg/mL
same,MIC Range,Klebsiella pneumoniae,<=2-4 ^
same,% resistant,Proteus mirabilis,100.0%
same,% susceptible,Proteus mirabilis,0.0%
same,MIC50,Proteus mirabilis,> 8 µg/mL
same,MIC Range,Proteus mirabilis; in µg/mL,>8
same,MIC Range,"Haemophilus influenzae; H. influenzae isolates of Table 6, nanoemulsion values as μg CPC/ml or μg BA/ml",0.5 to 16 µg/mL
same,MIC,"Haemophilus influenzae; Haemophilus influenzae, strain 30, nanoemulsion values as μg CPC/ml or μg BA/ml",0.5 µg/mL
same,MIC,"Haemophilus influenzae; Haemophilus influenzae, strain 32, nanoemulsion values as μg CPC/ml or μg BA/ml",2 µg/mL
same,MIC,"Haemophilus influenzae; Haemophilus influenzae, strain 33, nanoemulsion values as μg CPC/ml or μg BA/ml",1 µg/mL
same,MIC,"Haemophilus influenzae; Haemophilus influenzae, strain 34, nanoemulsion values as μg CPC/ml or μg BA/ml",1 µg/mL
same,MIC,"Haemophilus influenzae; Haemophilus influenzae, strain 35, nanoemulsion values as μg CPC/ml or μg BA/ml",0.5 µg/mL
same,MIC,"Haemophilus influenzae; Haemophilus influenzae, strain 36, nanoemulsion values as μg CPC/ml or μg BA/ml",1 µg/mL
same,MIC,"Haemophilus influenzae; Haemophilus influenzae, strain 37, nanoemulsion values as μg CPC/ml or μg BA/ml",1 µg/mL
same,MIC,"Haemophilus influenzae; Haemophilus influenzae, strain 38, nanoemulsion values as μg CPC/ml or μg BA/ml",0.5 µg/mL
same,MIC,"Haemophilus influenzae; Haemophilus influenzae, strain 41, nanoemulsion values as μg CPC/ml or μg BA/ml",1 µg/mL
same,MIC,"Haemophilus influenzae; Haemophilus influenzae, strain 42, nanoemulsion values as μg CPC/ml or μg BA/ml",1 µg/mL
same,MIC,"Haemophilus influenzae; Haemophilus influenzae, strain 49247, nanoemulsion values as μg CPC/ml (P4075EC, W205EC) or μg BA/ml (W205GBA2)",16 µg/mL
same,MIC90,"Haemophilus influenzae; Haemophilus influenzae, H. influenzae isolates of Table 6, nanoemulsion values as μg CPC/ml or μg BA/ml",2 µg/mL
same,MIC50,Burkholderia cepacia,> 8 µg/mL
same,MIC Range,Burkholderia cepacia,>8
same,MIC50,[2],> 8 µg/mL
same,% resistant,Escherichia coli,80.0%
same,% susceptible,Escherichia coli,20.0%
same,MIC50,Escherichia coli; [7],> 8 µg/mL
same,% resistant,Pseudomonas aeruginosa [5],40.0%
same,% susceptible,Pseudomonas aeruginosa [5],0.0%
same,MIC50,Pseudomonas aeruginosa [5],8 µg/mL
